Results: patent publication US6482849B1, “Inhibitors of α4β1 mediated cell adhesion” (Tanabe Seiyaku Co., Ltd., priority 1997, dated 2002)
Where a name gives a salt, the structure may show the parent alone.

Tests used:
[1] = target: T1, α4β1 integrin (Jurkat cell adhesion to immobilized CS-1 derived peptide CLHPGEILDVPST) (Homo sapiens, UniProt P05556+P13612); assay: Jurkat-CS-1 Assay; type: cell-based; conditions: Jurkat cells on CS-1 peptide coated plates
T1 construct: 100 μl of Jurkat cells (2.5×10^6 cells/ml) in DMEM plus BSA; endogenous in cells; host or cells: Jurkat T-cell line
T1 sequence (P13612 34-1032): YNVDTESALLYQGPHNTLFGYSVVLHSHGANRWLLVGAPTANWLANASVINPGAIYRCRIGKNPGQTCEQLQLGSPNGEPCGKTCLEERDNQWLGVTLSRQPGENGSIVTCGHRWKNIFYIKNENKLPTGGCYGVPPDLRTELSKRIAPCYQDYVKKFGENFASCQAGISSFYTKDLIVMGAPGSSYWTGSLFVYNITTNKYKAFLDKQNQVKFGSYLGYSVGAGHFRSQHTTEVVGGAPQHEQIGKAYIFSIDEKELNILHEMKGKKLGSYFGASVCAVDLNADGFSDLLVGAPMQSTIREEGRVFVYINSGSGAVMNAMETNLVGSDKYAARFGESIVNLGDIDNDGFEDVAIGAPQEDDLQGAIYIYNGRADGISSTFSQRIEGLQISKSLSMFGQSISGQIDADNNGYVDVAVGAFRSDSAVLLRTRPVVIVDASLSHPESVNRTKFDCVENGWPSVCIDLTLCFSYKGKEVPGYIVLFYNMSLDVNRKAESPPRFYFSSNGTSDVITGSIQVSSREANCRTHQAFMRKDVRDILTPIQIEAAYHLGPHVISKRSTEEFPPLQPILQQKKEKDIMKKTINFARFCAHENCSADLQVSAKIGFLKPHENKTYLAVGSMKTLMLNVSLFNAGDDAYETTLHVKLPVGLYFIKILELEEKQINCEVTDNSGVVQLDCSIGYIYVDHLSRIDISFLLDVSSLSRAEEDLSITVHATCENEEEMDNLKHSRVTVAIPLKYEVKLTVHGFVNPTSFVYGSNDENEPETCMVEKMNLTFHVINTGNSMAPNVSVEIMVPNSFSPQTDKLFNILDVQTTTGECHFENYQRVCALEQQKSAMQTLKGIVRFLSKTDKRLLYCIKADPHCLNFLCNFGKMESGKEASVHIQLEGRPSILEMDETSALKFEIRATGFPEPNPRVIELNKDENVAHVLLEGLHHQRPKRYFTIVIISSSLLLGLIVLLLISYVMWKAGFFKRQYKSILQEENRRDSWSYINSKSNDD
T1 sequence (P05556 21-798): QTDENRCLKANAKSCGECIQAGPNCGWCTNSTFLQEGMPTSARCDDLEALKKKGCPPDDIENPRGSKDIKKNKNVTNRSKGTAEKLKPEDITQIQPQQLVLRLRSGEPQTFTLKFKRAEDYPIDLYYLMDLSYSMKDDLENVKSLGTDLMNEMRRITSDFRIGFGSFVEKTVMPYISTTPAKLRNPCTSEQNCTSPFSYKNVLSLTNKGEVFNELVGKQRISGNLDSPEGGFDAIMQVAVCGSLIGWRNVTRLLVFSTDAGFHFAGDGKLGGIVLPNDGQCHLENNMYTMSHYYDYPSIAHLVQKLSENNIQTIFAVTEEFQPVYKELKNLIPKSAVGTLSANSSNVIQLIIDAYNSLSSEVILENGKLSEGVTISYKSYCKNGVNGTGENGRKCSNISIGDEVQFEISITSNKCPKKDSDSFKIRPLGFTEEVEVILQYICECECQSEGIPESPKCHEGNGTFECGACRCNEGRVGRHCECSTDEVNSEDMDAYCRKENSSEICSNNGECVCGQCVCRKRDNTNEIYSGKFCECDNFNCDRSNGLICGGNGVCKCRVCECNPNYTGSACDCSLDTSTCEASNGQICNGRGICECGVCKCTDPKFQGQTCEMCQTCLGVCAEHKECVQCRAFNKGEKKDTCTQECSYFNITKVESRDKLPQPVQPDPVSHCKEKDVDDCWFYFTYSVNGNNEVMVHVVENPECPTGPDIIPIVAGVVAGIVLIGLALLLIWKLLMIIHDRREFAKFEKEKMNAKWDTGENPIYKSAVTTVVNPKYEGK
Procedure: The CS-1 derived peptide, CLHPGEILDVPST, and the scrambled control peptide, CLHGPIELVSDPT, were synthesized on a Beckman 990 synthesizer using t-Boc methodology. The peptides were immobilized onto microtiter plates using the heterobifunctional crosslinker 3-(2-pyridyldithio)propionic acid N-hydroxysuccinimide ester (SPDP) as reported by Pierschbacher et al., Proc. Natl. Acad. USA, 80:1224-1227 (1983). Microtiter plates were coated with 20 μg/ml HSA for 2 hr. at room temperature, washed once with PBS and derivatized with 10 μg/ml SPDP for 1 hr. After washing, 100 μl of a 100 μg/ml cysteine containing peptide solution which had been recently dissolved was added to the wells and allowed to crosslink to the plates overnight at 4° C. Unbound peptide was removed from plates by washing with PBS. To block non-reacted sites, the plates are coated with 100 μl of a 2.5 mg/ml BSA solution in PBS for 1 hr. at 37° C. 100 μl of Jurkat cells (2.5×10^6 cells/ml) in DMEM plus BSA (2.5 mg/ml) was mixed with an appropriate concentration of the compound to be tested and the mixture was added to peptide coated dishes and incubated for 1 hr. at 37° C. Generally 100, 20, 5 and 1.25 μM concentrations of the compound were tested.
Following this incubation the plates were washed once with PBS and the attached cells were fixed with 3% paraformaldehyde in PBS and stained with 0.5% toluidine blue in 3.7% formaldehyde. The cells were stained overnight at room temperature and the optical density at 590 nm of toluidine blue stained cells was determined using a vertical pathway spectrophotometer to quantitate attachment (VMAX Kinetic Microplate Reader, Molecular Devices, Menlo Park, Calif.). This procedure is a modification of a previously published method (Cardarelli et al, J. Biol. Chem., 269:18668-18673 (1994) and Cardarelli et al, Proc. Natl. Acad. Sci. USA, 83:2647-2651 (1986)).

[2] = target: T2, α4β1 integrin (Jurkat T-cell adhesion to IL-1 stimulated endothelial cell monolayers) (Homo sapiens, UniProt P05556+P13612); assay: Jurkat-Endothelial Cell Adhesion Assay (Jurkat EC); type: cell-based; conditions: Jurkat cells on IL-1 stimulated HUVEC monolayers
T2 construct: a T-cell line, Jurkat, known to express the α4β1 integrin; host or cells: Jurkat T-cell line
T2 sequence (P13612 34-1032): as the sequence (P13612 34-1032) above
T2 sequence (P05556 21-798): as the sequence (P05556 21-798) above
Procedure: The following assay established the activity of the present compounds in inhibiting β1-mediated cell adhesion in a representative in vitro system. This assay measures the adhesive interactions of a T-cell line, Jurkat, known to express the α4β1 integrin, to endothelial monolayers in the presence of test compounds. The test compounds were added in increasing concentrations to T-cells and then the T-cell compound mixture was added to IL-1 stimulated endothelial cell monolayers. The plates were incubated, washed and the percentage of attached cells was quantitated. […] Human umbilical vein endothelial cells were purchased from Clonetics (San Diego, Calif.) at passage number 2. The cells were grown on 0.5% porcine skin gelatin pre-coated flasks (Sigma, St. Louis Mo.) in EGM-UV media (Clonetics, San Diego, Calif.) supplemented with 10% fetal bovine serum. Cells are refed every 2-3 days reaching confluence by day 4 to 6. […] The endothelial cells are not used following passage 6. Am The T-cell line Jurkat was obtained from American Type Tissue Culture Collection (Rockville, Md.) and the cells were cultured in RPMI containing 10% fetal calf serum. The cells were washed twice in Hank's Balanced Salt Solution (HBSS) and resuspended in Dulbecco's […] Eagle's Media (DMEM) containing 2.5 mg/ml Human Serum Albumin (HSA). Jurkat cells (1×10^6 cells/ml) were stained with 10 ng/ml BCECF-AM z z (Molecular Probes, Eugene, Ore.)) in HBSS without phenol red. The cells were loaded with BCECF for 60 minutes in the dark at 37° C., washed 2 times, and resusupended in DMEM-HSA solution.
Confluent endothelial monolayers, grown in 96-well tissue culture plates, were stimulated for 4 hr. at 37° C. with 0.1 ng/ml (˜50 U/ml) recombinant IL-1 (Amgen, Thousand Oaks, Calif.). Following this incubation, the monolayers were washed twice with HBSS and 0.1 ml of DMEM-HSA solution was added. Jurkat cells (5×10^5 cells) were combined with the appropriate concentration of the test compound and 0.1 ml of the Jurkat cell-compound mixture was added to the endothelial cell monolayers. Generally, 100, 20, 5 and 1.25 μM compound concentrations were tested. […] The plates were placed on ice for 5 minutes to allow for Jurkat cell settling and the plates were incubated at 37° C. for 20 minutes. Following this incubation, the monolayers were washed twice with PBS containing 1 mM calcium chloride and 1 mM magnesium chloride and the plates were read using a Millipore Cytofluor 2300 (Marlboro, Mass.). Fluorescence in each well was measured as Arbitrary Fluorescence Units and percent adhesion in the absence of compound was adjusted to 100% and the % adhesion in the presence of compound was calculated. Monolayers were also fixed in 3% paraformaldehyde and evaluated microscopically to verify the adhesion. This procedure is a modification of a previously published method (Cardarelli et al., J. Biol. Chem. 269:18668-18673 (1994)).

Compound | melting point | IC50 [1] [nM] | IC50 [2] [nM]
CC1(C)[C@@H](C(=O)N[C@@H](Cc2ccc(NC(=O)c3ccccc3O)cc2)C(=O)O)CC[C@@]1(C)C(=O)O [Example 143] | 148 to 150 °C | 500 to 1000 | –
CC1(C)[C@@H](C(=O)N[C@@H](Cc2ccc(NC(=O)C3Cc4ccccc4CN3)cc2)C(=O)O)CC[C@@]1(C)C(=O)O (some centres unmarked) [Example 146] | 208 to 211 °C | 80 to 500 | 800 to 5000
CC1(C)[C@@H](C(=O)N[C@@H](Cc2cccc(OCc3ccccc3)c2)C(=O)O)CC[C@@]1(C)C(=O)O [Example 46] | 88 to 90 °C | – | 800 to 5000
COC(=O)[C@H](Cc1ccc(NC(=O)c2c(Cl)cccc2Cl)cc1)NC(=O)[C@H]1CC[C@@](C)(C(=O)NCC(N)=O)C1(C)C [Example 233, (1S-cis)-N-[[3-[[(2-Amino-2-oxoethyl)amino]carbonyl]-2,2,3-trimethylcyclopentyl]carbonyl]-4-[(2,6-dichlorobenzoyl)amino]-L-phenylalanine methyl ester] | 232 to 233 °C | – | –
CC1(C)[C@@H](C(=O)N[C@@H](Cc2ccc(OCc3ccccc3)cc2)C(=O)O)CC[C@@]1(C)C(=O)O [Example 2, (1S-cis)-N-[(3-Carboxy-2,2,3-trimethylcyclopentyl)carbonyl]-O-(phenylmethyl)-L-tyrosine] | 146 to 149 °C | 500 to 1000 | –
CC1(C)[C@H](C(=O)O)CC[C@@]1(C)C(=O)N[C@@H](Cc1ccc(NC(=O)c2c(Cl)cccc2Cl)cc1)C(=O)O [Example 250, (1R-trans)-N-[(3-Carboxy-1,2,2-trimethylcyclopentyl)carbonyl]-4-[(2,6-dichlorobenzoyl)amino]-L-phenylalanine] | 148 to 155 °C | – | –
CC1(C)[C@@H](C(=O)O)CC[C@@]1(C)C(=O)N[C@H](CC(=O)O)Cc1ccc(OCc2c(Cl)cccc2Cl)cc1 (relative stereo) [Example 204, [1R-[1α(S*),3α]]-β-[[(3-Carboxy-1,2,2-trimethylcyclopentyl)carbonyl]amino]-4-[(2,6-dichlorophenyl)methoxy]-benzenebutanoic acid] | 106 to 108 °C | – | –
CC1(C)[C@@H](C(=O)N[C@@H](Cc2ccc(NC(=O)C3CCCCC3)cc2)C(=O)O)CC[C@@]1(C)C(=O)O [Example 75] | 151 to 154 °C | – | 800 to 5000
CC(C)CC(=O)Nc1ccc(C[C@H](NC(=O)[C@H]2CC[C@@](C)(C(=O)O)C2(C)C)C(=O)O)cc1 [Example 134] | 146 to 148 °C | – | 800 to 5000
CC(=O)Nc1ccc(C[C@H](NC(=O)[C@H]2CC[C@@](C)(C(=O)O)C2(C)C)C(=O)O)cc1 [Example 79] | 238 to 240 °C | – | 5000 to 10000
CC1(C)[C@@H](C(=O)N[C@@H](Cc2ccc(NC(=O)c3c(Cl)cccc3Cl)c(Br)c2)C(=O)O)CC[C@@]1(C)C(=O)O [Example 252, (1S-cis)-N-[(3-Carboxy-2,2,3-trimethylcyclopentyl)carbonyl]-3-bromo-4-[(2,6-dichlorobenzoyl)amino]-L-phenylalanine] | 150 to 152 °C | – | –
COC(=O)C(Cc1cn(Cc2ccc(Cl)c(Cl)c2)cn1)NC(=O)[C@H]1CC[C@@](C)(C(=O)O)C1(C)C (stereo in doubt) [Example 3, (1S-cis)-N-[(3-Carboxy-2,2,3-trimethylcyclopentyl)carbonyl]-1-[(3,4-dichlorophenyl)methyl]-L-histidine methyl ester] | 174 to 175 °C (dec.) | – | –
CONC(=O)[C@]1(C)CC[C@H](C(=O)N[C@@H](Cc2ccc(OCc3c(Cl)cccc3Cl)cc2)C(=O)O)C1(C)C [Example 163] | 70 to 72 °C | 500 to 1000 | –
CCCCC(CC)COc1ccc(CC(NC(=O)C2CCC(C)(C(=O)O)C2(C)C)C(=O)O)cc1 (centres unmarked) [Example 14] | 94 to 97 °C | – | 5000 to 10000
CC(C)(C)OC(=O)[C@]1(C)CC[C@H](C(=O)N[C@@H](Cc2cn(Cc3ccc(Cl)c(Cl)c3)cn2)C(=O)O)C1(C)C [Example 202, (1S-cis)-1-[(3,4-Dichlorophenyl)methyl]-N-[[3-[(1,1-dimethylethoxy)carbonyl]-2,2,3-trimethylcyclopentyl]carbonyl]-L-histidine] | 234 to 235 °C | – | –
CC1(C)[C@@H](C(=O)N[C@@H](Cc2ccc(NC(=O)c3c(Cl)cccc3Cl)cc2)C(=O)O)CC[C@@]1(C)C(=O)N1CCC[C@@H]1C(N)=O (relative stereo) [Example 212, [1S-[1α,3α(S*)]]-N-[3-[[2-(Aminocarbonyl)-1-pyrrolidinyl]carbonyl]-2,2,3-trimethylcyclopentyl]-carbonyl]-4-[(2,6-dichlorobenzoyl)amino]-L-phenylalanine monolithium salt] | – | 80 to 500 | 5000 to 10000
CCCCCCCc1ccc(C(=O)Nc2ccc(C[C@H](NC(=O)[C@H]3CC[C@@](C)(C(=O)O)C3(C)C)C(=O)O)cc2)cc1 [Example 122] | 212 to 214 °C | – | 800 to 5000
CC1(C)[C@@H](C(=O)O)CC[C@]1(C)C(=O)N[C@H](Cc1ccc(NC(=O)c2c(Cl)cccc2Cl)cc1)C(=O)O [Example 246, (1S-trans)-N-[(3-Carboxy-1,2,2-trimethylcyclopentyl)carbonyl]-4-[(2,6-dichlorobenzoyl)amino]-D-phenylalanine] | 145 to 150 °C | – | –
CC1(C)[C@H](C(=O)O)CC[C@]1(C)C(=O)N[C@@H](Cc1ccc(NC(=O)c2c(Cl)cccc2Cl)cc1)C(=O)O [Example 244, (1S-cis)-N-[(3-Carboxy-1,2,2-trimethylcyclopentyl)carbonyl]-4-[(2,6-dichlorobenzoyl)amino]-L-phenylalanine] | 152 to 157 °C | – | –
CC1(C)[C@@H](C(=O)N[C@H](Cc2ccc(NC(=O)c3c(Cl)cccc3Cl)cc2)C(=O)O)CC[C@@]1(C)C(=O)O [Example 237, (1S-cis)-N-[(3-Carboxy-2,2,3-trimethylcyclopentyl)carbonyl]-4-[(2,6-dichlorobenzoyl)amino]-D-phenylalanine] | 263 to 267 °C | – | –
CC1(C)[C@@H](C(=O)N[C@@H](Cc2cn(Cc3c(Cl)cccc3Cl)cn2)C(=O)O)CC[C@@]1(C)C(=O)O [Example 26] | – | 500 to 1000 | 800 to 5000
CC1(C)[C@@H](C(=O)N[C@@H](Cc2ccc(NC(=O)c3ccccc3[N+](=O)[O-])cc2)C(=O)O)CC[C@@]1(C)C(=O)O [Example 102] | – | ≤ 80 | ≤ 800
CC(=O)N(Cc1c(Cl)cccc1Cl)c1ccc(C[C@H](NC(=O)[C@H]2CC[C@@](C)(C(=O)O)C2(C)C)C(=O)O)cc1 [Example 170] | 241 to 244 °C | – | 5000 to 10000
